Assay results reported in patent US9770026B2, “Substituted pyrimidine compound and uses thereof” (Shenyang Sinochem Agrochemicals R&D Co., Ltd., priority 2012, dated 2017).

Columns and labels:
[1] = system: corn rust; assay: protectant activity in vivo against corn rust
[2] = system: Green peach aphids (Myzus Persicae Sulzer); assay: bioactivity test against green peach aphid, airbrush foliar spray; type: in vivo; details: for control (test results against green peach aphid): death rate after 48 hrs
In short: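 Death rate was scored at 48 hrs, held at 25±1 C and 60±5% RH, following airbrush foliar spray (0.5 mL, 10 psi) onto cabbage leaf discs bearing about 15-30 aphids. Test solutions: compound dissolved in 1:1 acetone:methanol, brought to concentration with 0.1% tween 80 water.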

[3] = system: carmine spider mite; assay: bioactivity test against carmine spider mite, airbrush spray; type: in vivo; details: for control against carmine spider mite: mortality after 72 hrs
Description: (§1) Compounds were dissolved in mixed solvent (acetone:methanol=1:1), and diluted to required concentration with water containing 0.1% of tween 80.
(§2) Diamond back moth, armyworm, peach aphid and carmine spider mite were used as targets and the method of spraying by airbrush was used for determination of insecticidal biassays.
The method: Broadbean shoots with two true leaves in pot were taken, the healthy adults of carmine spider mite were inoculated to the leaves. The adults were counted and then sprayed with airbrush at the pressure of 0.7 kg/cm^2 and at dose of 0.5 ml. 3 replicates were set for each treatment. And then they were maintained in standard observation room. Scores were conducted and mortalities were calculated after 72 hrs.

[4] = system: wheat powdery mildew; assay: protectant activity in vivo against wheat powdery mildew
[5] = system: cucumber downy mildew; assay: protectant activity in vivo against cucumber downy mildew
[6] = system: Diamond back moth; assay: insecticidal activity against diamond back moth, airbrush spray; type: in vivo; details: for control (test results against diamond back moth): 600 ppm, mortality after 72 hrs
Description: as §1, §2
(§3) The method of spraying by airbrush: The cabbage leaves were made into plates of 2 cm diameter by use of punch. A test solution (0.5 ml) was sprayed by airbrush at the pressure of 0.7 kg/cm^2 to both sides of every plate. 10 Second instar larvae were put into the petri-dishes after the leaf disc air-dried and 3 replicates were set for each treatment. Then the insects were maintained in observation room (25° C., 60˜70% R.H.). Scores were conducted and mortalities were calculated after 72 hrs.

[7] = system: armyworm; assay: bioactivity test against armyworm, airbrush spray; type: in vivo; details: mortality after 72 h
Description: as §1, §2
as §3, with “corn” for “cabbage”, “(25 °C,” for “(25° C.,”, “h.” for “hrs.”

Compound: FC(F)(F)c1ccc(Oc2ccc(CCNc3cc(Cl)ncn3)cc2)nc1 [CK69, reference compound]
- pest or weed control at 6.25 µg/mL ([1]; Zea mays, 168 h, read-out: control effect against corn rust (%), 6.25 mg/L, protectant activity): 0%
- pest or weed control at 25 µg/mL ([1]; Zea mays, 168 h, read-out: control effect against corn rust (%), 25 mg/L, protectant activity): 50%
- pest or weed control at 100 µg/mL ([1]; Zea mays, 168 h, read-out: control effect against corn rust (%), 100 mg/L, protectant activity): 90%
- pest or weed control at 400 µg/mL ([1]; Zea mays, 168 h, read-out: control effect against corn rust (%), 400 mg/L, protectant activity): 100%
- pest or weed control at 10 µg/mL ([2]; Myzus persicae, foliar, 48 h, 10 mg/L, contrastive test, read-out: Insecticidal activity against peach aphid (%)): 70%
- pest or weed control at 100 µg/mL ([2]; Myzus persicae, foliar, 48 h, 100 mg/L, contrastive test, read-out: Insecticidal activity against peach aphid (%)): 100%
- pest or weed control at 600 µg/mL ([2]; Myzus persicae, foliar, 48 h, 600 mg/L, contrastive test, read-out: Insecticidal activity against peach aphid (%)): 100%
- pest or weed control at 10 µg/mL ([3]; Tetranychus cinnabarinus, 72 h, 10 mg/L, contrastive test, read-out: Insecticidal activity against carmine spider mite (% )): 4%
- pest or weed control at 100 µg/mL ([3]; Tetranychus cinnabarinus, 72 h, 100 mg/L, contrastive test, read-out: Insecticidal activity against carmine spider mite (% )): 100%
- pest or weed control at 600 µg/mL ([3]; Tetranychus cinnabarinus, 72 h, 600 mg/L, contrastive test, read-out: Insecticidal activity against carmine spider mite (% )): 100%
- pest or weed control at 6.25 µg/mL ([4]; Triticum aestivum, 168 h, read-out: control effect against wheat powdery mildew (%), 6.25 mg/L, protectant activity): 0%
- pest or weed control at 25 µg/mL ([4]; Triticum aestivum, 168 h, read-out: control effect against wheat powdery mildew (%), 25 mg/L, protectant activity): 0%
- pest or weed control at 100 µg/mL ([4]; Triticum aestivum, 168 h, read-out: control effect against wheat powdery mildew (%), 100 mg/L, protectant activity): 0%
- pest or weed control at 400 µg/mL ([4]; Triticum aestivum, 168 h, read-out: control effect against wheat powdery mildew (%), 400 mg/L, protectant activity): 100%
- pest or weed control at 25 µg/mL ([5]; Cucumis sativus, 168 h, read-out: control effect against cucumber downy mildew (%), 25 mg/L, protectant activity): 50%
- pest or weed control at 50 µg/mL ([5]; Cucumis sativus, 168 h, read-out: control effect against cucumber downy mildew (%), 50 mg/L, protectant activity): 98%
- pest or weed control at 100 µg/mL ([5]; Cucumis sativus, 168 h, read-out: control effect against cucumber downy mildew (%), 100 mg/L, protectant activity): 100%
- pest or weed control at 400 µg/mL ([5]; Cucumis sativus, 168 h, read-out: control effect against cucumber downy mildew (%), 400 mg/L, protectant activity): 100%
- pest or weed control at 10 µg/mL ([6]; 72 h, 10 mg/L): 0%
- pest or weed control at 100 µg/mL ([6]; 72 h, 100 mg/L): 5%
- pest or weed control at 600 µg/mL ([6]; 72 h, 600 mg/L): 100%

Compound: Cc1ncnc(NCCc2ccc(Oc3ccc(Cl)nn3)cc2)c1Br [Compound I-4121]
- control (test results against armyworm) ([7]; 600 ppm): 100%
- protectant activity against corn rust in vivo ([1]; 400 ppm): 100%
- control (test results against green peach aphid) ([2]; 10 ppm): 100%
- control (test results against green peach aphid) ([2]; 100 ppm): 100%
- control (test results against green peach aphid) ([2]; 600 ppm): 100%
- protectant activity against wheat powdery mildew in vivo ([4]; 400 ppm): 100%
- control (test results against diamond back moth) [6]: 100%

Compound: CCc1ncnc(NCCc2ccc(Oc3ccc(C(F)(F)F)cn3)cc2)c1Cl [Compound I-6741]
- control (test results against armyworm) ([7]; 100 ppm): 100%
- control (test results against armyworm) ([7]; 600 ppm): 100%
- protectant activity against corn rust in vivo ([1]; 100 ppm): 100%
- protectant activity against corn rust in vivo ([1]; 400 ppm): 100%
- control (test results against green peach aphid) ([2]; 5 ppm): 100%
- control (test results against green peach aphid) ([2]; 10 ppm): 100%
- control (test results against green peach aphid) ([2]; 100 ppm): 100%
- control (test results against green peach aphid) ([2]; 600 ppm): 100%
- Insecticidal activity against carmine spider mite (% ) ([3]; 10 mg/L, contrastive test): 85%
- Insecticidal activity against carmine spider mite (% ) ([3]; 100 mg/L, contrastive test): 100%
- Insecticidal activity against carmine spider mite (% ) ([3]; 600 mg/L, contrastive test): 100%
- control against carmine spider mite ([3]; 100 ppm): 100%
- control against carmine spider mite ([3]; 600 ppm): 100%
- protectant activity against wheat powdery mildew in vivo ([4]; 100 ppm): 100%
- protectant activity against wheat powdery mildew in vivo ([4]; 400 ppm): 100%

Compound: Cc1ncnc(NCCc2ccc(Oc3ccc(C(F)(F)F)cc3Cl)cc2)c1Cl [II-154]
- control effect against corn rust (%) ([1]; 1.6 mg/L, protectant activity): 50%
- control effect against corn rust (%) ([1]; 6.25 mg/L, protectant activity): 100%
- control effect against corn rust (%) ([1]; 25 mg/L, protectant activity): 100%
- control effect against corn rust (%) ([1]; 100 mg/L, protectant activity): 100%
- control effect against corn rust (%) ([1]; 400 mg/L, protectant activity): 100%
- protectant activity against corn rust in vivo ([1]; 6.25 ppm): 100%
- protectant activity against corn rust in vivo ([1]; 25 ppm): 100%
- protectant activity against corn rust in vivo ([1]; 100 ppm): 100%
- protectant activity against corn rust in vivo ([1]; 400 ppm): 100%
- control (test results against green peach aphid) ([2]; 100 ppm): 100%
- control (test results against green peach aphid) ([2]; 600 ppm): 100%
- control against carmine spider mite ([3]; 100 ppm): 100%
- control against carmine spider mite ([3]; 600 ppm): 100%
- protectant activity against wheat powdery mildew in vivo ([4]; 100 ppm): 100%
- protectant activity against wheat powdery mildew in vivo ([4]; 400 ppm): 100%
- protectant activity against cucumber downy mildew in vivo ([5]; 400 ppm): 100%
- control (test results against diamond back moth) [6]: 100%

Compound: CCc1ncnc(NCCc2ccc(Oc3ccc(Cl)cc3Cl)cc2)c1Cl [II-299]
- control (test results against armyworm) ([7]; 600 ppm): 100%
- protectant activity against corn rust in vivo ([1]; 100 ppm): 100%
- protectant activity against corn rust in vivo ([1]; 400 ppm): 100%
- control (test results against green peach aphid) ([2]; 100 ppm): 100%
- control (test results against green peach aphid) ([2]; 600 ppm): 100%
- Insecticidal activity against carmine spider mite (% ) ([3]; 10 mg/L, contrastive test): 72%
- Insecticidal activity against carmine spider mite (% ) ([3]; 100 mg/L, contrastive test): 100%
- Insecticidal activity against carmine spider mite (% ) ([3]; 600 mg/L, contrastive test): 100%
- control against carmine spider mite ([3]; 100 ppm): 100%
- control against carmine spider mite ([3]; 600 ppm): 100%
- protectant activity against wheat powdery mildew in vivo ([4]; 400 ppm): 100%
- protectant activity against cucumber downy mildew in vivo ([5]; 100 ppm): 100%
- protectant activity against cucumber downy mildew in vivo ([5]; 400 ppm): 100%

Compound: CCc1ncnc(NCCc2ccc(Oc3ccc(S(N)(=O)=O)cc3)cc2)c1Cl [II-556]
- control (test results against diamond back moth) [6]: 100%

Compound: COc1cc(CCNc2ncnc(C)c2Cl)ccc1Oc1ccc(Cl)cc1 [II-1687]
- protectant activity against corn rust in vivo ([1]; 100 ppm): 100%
- protectant activity against corn rust in vivo ([1]; 400 ppm): 100%
- Insecticidal activity against peach aphid (%) ([2]; 10 mg/L, contrastive test): 100%
- Insecticidal activity against peach aphid (%) ([2]; 100 mg/L, contrastive test): 100%
- Insecticidal activity against peach aphid (%) ([2]; 600 mg/L, contrastive test): 100%
- control (test results against green peach aphid) ([2]; 10 ppm): 100%
- control (test results against green peach aphid) ([2]; 100 ppm): 100%
- control (test results against green peach aphid) ([2]; 600 ppm): 100%
- control against carmine spider mite ([3]; 600 ppm): 100%
- protectant activity against wheat powdery mildew in vivo ([4]; 25 ppm): 100%
- protectant activity against wheat powdery mildew in vivo ([4]; 100 ppm): 100%
- protectant activity against wheat powdery mildew in vivo ([4]; 400 ppm): 100%
- protectant activity against cucumber downy mildew in vivo ([5]; 50 ppm): 100%
- protectant activity against cucumber downy mildew in vivo ([5]; 100 ppm): 100%
- protectant activity against cucumber downy mildew in vivo ([5]; 400 ppm): 100%
- control (test results against diamond back moth) [6]: 100%

Compound: Cc1ncnc(NCCc2ccc(Oc3cccc(Cl)c3)nc2)c1Cl [III-6]
- control (test results against armyworm) ([7]; 600 ppm): 100%
- protectant activity against corn rust in vivo ([1]; 100 ppm): 100%
- protectant activity against corn rust in vivo ([1]; 400 ppm): 100%
- control (test results against green peach aphid) ([2]; 600 ppm): 100%
- protectant activity against wheat powdery mildew in vivo ([4]; 400 ppm): 100%
- control (test results against diamond back moth) [6]: 100%

Compound: Cc1cc(Cl)ccc1Oc1ccc(CCNc2ncnc(C)c2Cl)cn1 [III-110]
- protectant activity against corn rust in vivo ([1]; 100 ppm): 100%
- protectant activity against corn rust in vivo ([1]; 400 ppm): 100%
- control (test results against green peach aphid) ([2]; 100 ppm): 100%
- control (test results against green peach aphid) ([2]; 600 ppm): 100%
- control against carmine spider mite ([3]; 600 ppm): 100%
- protectant activity against wheat powdery mildew in vivo ([4]; 400 ppm): 100%
- control effect against cucumber downy mildew (%) ([5]; 25 mg/L, protectant activity): 100%
- control effect against cucumber downy mildew (%) ([5]; 50 mg/L, protectant activity): 100%
- control effect against cucumber downy mildew (%) ([5]; 100 mg/L, protectant activity): 100%
- control effect against cucumber downy mildew (%) ([5]; 400 mg/L, protectant activity): 100%
- protectant activity against cucumber downy mildew in vivo ([5]; 25 ppm): 100%
- protectant activity against cucumber downy mildew in vivo ([5]; 50 ppm): 100%
- protectant activity against cucumber downy mildew in vivo ([5]; 100 ppm): 100%
- protectant activity against cucumber downy mildew in vivo ([5]; 400 ppm): 100%
- control (test results against diamond back moth) [6]: 100%

Compound: CCc1ncnc(NCCc2ccc(Oc3ccccc3Cl)nc2)c1Cl [III-185]
- protectant activity against corn rust in vivo ([1]; 400 ppm): 100%
- control (test results against green peach aphid) ([2]; 100 ppm): 100%
- control (test results against green peach aphid) ([2]; 600 ppm): 100%
- control against carmine spider mite ([3]; 600 ppm): 100%
- protectant activity against wheat powdery mildew in vivo ([4]; 400 ppm): 100%
- control (test results against diamond back moth) [6]: 100%

Compound: Cc1nc(Cl)c(Cl)c(NCCc2ccc(Oc3ccc(Cl)cc3)nc2)n1 [III-2527]
- control (test results against armyworm) ([7]; 600 ppm): 100%
- control (test results against green peach aphid) ([2]; 600 ppm): 100%
- control effect against cucumber downy mildew (%) ([5]; 6.25 mg/L, protectant activity): 75%
- control effect against cucumber downy mildew (%) ([5]; 12.5 mg/L, protectant activity): 100%
- control effect against cucumber downy mildew (%) ([5]; 25 mg/L, protectant activity): 100%
- control effect against cucumber downy mildew (%) ([5]; 50 mg/L, protectant activity): 100%
- control effect against cucumber downy mildew (%) ([5]; 100 mg/L, protectant activity): 100%
- control effect against cucumber downy mildew (%) ([5]; 400 mg/L, protectant activity): 100%
- protectant activity against cucumber downy mildew in vivo ([5]; 12.5 ppm): 100%
- protectant activity against cucumber downy mildew in vivo ([5]; 25 ppm): 100%
- protectant activity against cucumber downy mildew in vivo ([5]; 50 ppm): 100%
- protectant activity against cucumber downy mildew in vivo ([5]; 100 ppm): 100%
- protectant activity against cucumber downy mildew in vivo ([5]; 400 ppm): 100%
- control (test results against diamond back moth) [6]: 100%
